Test results from PubChem BioAssay (NCI).
“And” between values parts separate entries of the source, which are not always exact repeats. Equal values may be shown once.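 Dose response: 5 concentrations. Exposure: 48 h. Format: 96-well plates. Endpoint: linear interpolation; highest concentration if not reached. GI50 is the concentration that inhibits growth by half. Definition used: TGI = concentration required for complete inhibition of growth.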

How the values were obtained:
Experiment in all cases: NCI anticancer screen, dose series, 48 h
A549 NSCLC = test system: A549 NSCLC
DMS 114 small cell lung = test system: DMS 114 small cell lung
OVCAR-3 ovarian = test system: OVCAR-3 ovarian
OVCAR-5 ovarian = test system: OVCAR-5 ovarian
OVCAR-8 ovarian = test system: OVCAR-8 ovarian
SK-MEL-28 melanoma = test system: SK-MEL-28 melanoma
SNB-75 CNS = test system: SNB-75 CNS
SNB-78 CNS = test system: SNB-78 CNS
SW-620 colon = test system: SW-620 colon
HS 578T breast = test system: HS 578T breast

Row | SMILES | TGI (A549 NSCLC) [µM] | TGI (DMS 114 small cell lung) [µM] | TGI (OVCAR-3 ovarian) [µM] | TGI (OVCAR-5 ovarian) [µM] | TGI (OVCAR-8 ovarian) [µM] | TGI (SK-MEL-28 melanoma) [µM] | TGI (SNB-75 CNS) [µM] | TGI (SNB-78 CNS) [µM] | TGI (SW-620 colon) | TGI (HS 578T breast) [µM] | GI50 (OVCAR-3 ovarian) [µM] | GI50 (SK-MEL-28 melanoma) [µM] | GI50 (A549 NSCLC) [µM] | GI50 (DMS 114 small cell lung) [µM] | GI50 (OVCAR-5 ovarian) [µM] | GI50 (OVCAR-8 ovarian) [µM] | GI50 (SNB-75 CNS) [µM] | GI50 (SNB-78 CNS) [µM] | GI50 (SW-620 colon) [µM]
1 | CN(C)CC1CCCC/C1=N/O (stereo not drawn) | > 100 | > 100 | > 100 | > 100 | > 100 | > 100 | > 100 | > 100 | > 100 µM |  |  |  |  |  |  |  |  |  | 
2 | CN(C)CC1CCC/C1=N/OC(=O)c1ccccc1 (stereo not drawn) |  | > 100 | > 100 | > 100 | > 100 | > 100 | > 100 | > 100 | > 100 µM |  |  |  |  |  |  |  |  |  | 
3 | COc1ccc2c(c1)[n+]([O-])c(C(N)=O)c(N)[n+]2[O-] | > 100 | 98.8 | 98.5 | > 100 | > 100 | > 100 | > 100 | > 100 | > 100 µM |  |  |  |  |  |  |  |  |  | 
4 | Cc1ccc(S(=O)(=O)N2CCC2c2ccccc2)cc1 (stereo not drawn) | > 100 | > 100 | > 100 |  | > 100 | > 100 | > 100 | > 100 | > 100 µM |  |  |  |  |  |  |  |  |  | 
5 | C/C(CN1C(=O)c2ccccc2C1=O)=N\NS(=O)(=O)c1ccc(Cl)cc1 | > 100 |  | > 100 | > 100 | > 100 |  | > 100 | > 100 | > 100 µM |  |  |  |  |  |  |  |  |  | 
6 | Cc1nc(-c2nc(C)c(C(=O)NNC(=O)C[n+]3ccccc3)s2)sc1C(=O)NNC(=O)C[n+]1ccccc1 | > 100 | > 100 | > 100 | > 100 | > 100 | > 100 | 84.3 | > 100 | > 100 µM |  |  |  |  |  |  |  |  |  | 
7 | CCOC(=O)C1Sc2ccccc2N=C1C (stereo not drawn) | > 100 | > 100 | > 100 | > 100 | > 100 | > 100 | > 100 | > 100 | > 100 µM |  |  |  |  |  |  |  |  |  | 
8 | O=S1C(=c2ccc(=C3Sc4ccccc4S3)cc2)Sc2ccccc21 (stereo not drawn) | 35.5 | > 56.4 | > 100 | 32.4 | 34.4 | 7 | 35.8 | > 100 | > 100 µM |  |  |  |  |  |  |  |  |  | 
9 | O=C(NC1C=CCC2C(=O)N(c3ccccc3)C(=O)C12)OCc1ccccc1 (stereo not drawn) | > 100 |  | > 100 | > 100 | > 100 | > 100 | > 100 | > 100 | > 100 µM |  |  |  |  |  |  |  |  |  | 
10 | CCC(C)SC1SCC2C(=O)N(C)C3(CC3C)C(=O)OCC(NC(=O)c3nc4ccccc4cc3O)C(=O)NC(C)C(=O)N(C)C1C(=O)N(C)C1(CC1C)C(=O)OCC(NC(=O)c1nc3ccccc3cc1O)C(=O)NC(C)C(=O)N2C (stereo not drawn) | 1.91 | 0.000279 | 0.00768 | 0.00256 | 0.0133 | 0.000138 | 8.3e-05 | 0.255 | 0.00439 µM and < 0.034 µM | 0.000309 | 0.000162 | 3.02e-05 |  |  |  |  |  |  | 
11 | CNC(=O)NCCCC(NC(C)=O)C(=O)NCc1ccccc1 (stereo not drawn) | > 100 | > 100 | > 100 | > 100 | > 100 | > 100 | > 100 | > 100 | > 100 µM |  |  |  |  |  |  |  |  |  | 
12 | CN(C)C=Nc1nc(=O)n(C2CCC(CO)O2)cc1F (stereo not drawn) | > 100 |  | > 100 | > 100 | > 100 | > 100 | > 100 | > 100 | > 100 µM |  |  |  |  |  |  |  |  |  | 
13 | COc1ccc(/C=C/COC(C)=O)cc1OC | > 100 | > 100 | > 100 | > 100 | > 100 | > 100 | > 100 | > 100 | > 100 µM |  |  |  |  |  |  |  |  |  | 
14 | O=c1c2cccnc2ncn1CCN1CCCCC1 | > 100 | > 100 | > 100 | > 100 | > 100 | > 100 | > 100 | > 100 | > 100 µM |  |  |  |  |  |  |  |  |  | 
15 | N#CC(C(=O)CCC(=O)Nc1ccc(Cl)c(Cl)c1)c1ccccc1 (stereo not drawn) | > 100 | > 100 | > 100 | > 100 | > 100 | > 100 | > 100 | > 100 | > 100 µM |  |  |  |  |  |  |  |  |  | 
16 | C[C@@]1(O)CC[C@]2(C)C3CCCC3[C@H]12 (stereo partly drawn) | > 100 | > 100 | > 100 | > 100 | > 100 | > 100 | > 100 | > 100 | > 100 µM |  |  |  |  |  |  |  |  |  | 
17 | CN1C(=O)C(=O)N2c3ccc(Cl)cc3C3(c4ccccc4)N=CC12O3 (stereo not drawn) | 23.1 | 11.6 | 14.8 | 20 | 12.8 | 12.1 | 24.3 | 33.8 | 14.5 µM |  |  |  |  |  |  |  |  |  | 
18 | [O-][Cl+3]([O-])([O-])[O-].[O]=[Ru]=[O].c1ccc(-c2ccccn2)nc1.c1ccc(-c2ccccn2)nc1 | > 100 | 61.2 | > 100 | > 100 | > 100 | > 100 | > 100 | > 100 | > 100 µM |  | > 100 | 92.1 | > 100 | 21.9 | > 100 | > 100 | 40.9 | > 100 | > 100
